According to PMC8358040, “The enzymatic activity of inositol hexakisphosphate kinase controls circulating phosphate in mammals” (Nature Communications, 2021):
Several values for one entry are separate records, joined by “and”; a condition that tells them apart may be missing. Equal values may be shown once. Blank lines part the entries; values can stand above or below the compound they belong to.

Key:
[1] = system: phosphate excretion in faeces; assay: Cumulative 32P activity in faeces of rats administered NaH2 32PO4; type: in vivo, rat; details: for Cumulative 32P activity in the faeces: lanthanum carbonate 1000 mg/kg 7th dose
Experimental: (§1) The experiment was performed using 8-week-old SD rats (CLEA Japan, Inc.). Male rats were randomly sorted into different groups based on their body weight (n = 5). […] After a 1 h treatment, NaH2^32PO4 solution (11 μCi/2 mL/rat) was administered orally. Following NaH2^32PO4 administration, rats were placed in metabolic cages, and faeces and urine were collected up to 72 h later. The compound was administered once a day during the 72 h experiment. […] The radioactivity (%) in the faecal and urine samples was calculated by setting the radioactivity of the administered NaH2^32PO4 to 100 %.

[2] = system: phosphate excretion in urine; assay: Cumulative 32P activity in urine of rats administered NaH2 32PO4; type: in vivo, rat; details: lanthanum carbonate 1000 mg/kg 7th dose
Experimental: as §1

[3] = Plasma concentration of SC-919, single-dose study in normal rats; type: in vivo, rat
Experimental: The experiment was performed with 8-week-old male SD rats (CLEA Japan, Inc.). […] The concentration of the compound in the plasma was measured at the same timepoints (n = 3).

[4] = Plasma concentration of SC-919, single-dose study in normal monkeys; type: in vivo, cynomolgus monkey; details: 0.3 mg/kg oral, time 1, individual animals (Fig3c)
Experimental: The experiments were performed at Hamamatsu Pharma Research, Inc. (Hamamatsu, Shizuoka, Japan), which is accredited by the American Association for Accreditation of Laboratory Animal Care. Male cynomolgus monkeys were housed in a room with controlled temperature, humidity, and lighting (12 h light/dark cycle). All monkeys were fed a regular diet (100 g/day, PS-A, Oriental Yeast Co., Ltd.) and had free access to tap water. The experiments were performed when the animals were 3–4 years old. The monkeys were randomized into different groups based on plasma phosphate, body weight (2.6–4.7 kg), and age (n = 6). Corn oil (FUJIFILM Wako) was used as a vehicle. […] Blood was collected from the cephalic vein, saphenous vein, or the femoral vein using a disposable syringe and needle at the indicated timepoints for the measurement of phosphate levels in the plasma. The concentration of the compound in the plasma was measured at the same timepoints (n = 6).

[5] = Plasma concentration of SC-919 in bilaterally nephrectomized rats; type: in vivo, rat; details: bilaterally nephrectomised rats, 0.3 mg/kg oral, 5 h, individual animals (Fig4e)
Experimental: The experiment was performed with 9-week-old male SD rats (CLEA Japan, Inc.). For bilateral nephrectomy, rats were fasted for 16 h and were subcutaneously injected with buprenorphine (0.05 mg/kg, Otsuka). Thirty minutes later, the rats were anesthetized using isoflurane (3% v/v) and kept on thermal pads at 37 °C with isoflurane (2% v/v). The left and right abdomen and the neck were shaved with a clipper. The surgical site was disinfected with a chlorhexidine-containing antiseptic solution, and the aesthetic state was confirmed by the disappearance of the pain reflex. The skin was incised to expose the kidney, and the renal artery and vein were ligated, which was followed by the isolation of the kidney. […] A sham operation group (n = 6), without nephrectomy, was prepared following the same procedure. After completion of the operation, meloxicam (1 mg/kg) was subcutaneously administered once a day during the study. One day after the operation, anaesthesia was introduced using the procedure described above, and blood was collected from the jugular vein.

[6] = Plasma concentration of SC-919 in adenine-treated rats (sub-chronic dose study)
human IP6K1 = target: T1, human IP6K1 (Homo sapiens, UniProt Q92551); assay: ADP-Glo kinase assay for IP6K activity; type: biochemical; details: recombinant human IP6K1 15 nM, ATP 15 μM, InsP6 50 μM, 2 h; mean ± S.D.
T1 construct: made in house; host or cells: Sf9 insect cells (baculovirus)
T1 sequence (Q92551 whole entry): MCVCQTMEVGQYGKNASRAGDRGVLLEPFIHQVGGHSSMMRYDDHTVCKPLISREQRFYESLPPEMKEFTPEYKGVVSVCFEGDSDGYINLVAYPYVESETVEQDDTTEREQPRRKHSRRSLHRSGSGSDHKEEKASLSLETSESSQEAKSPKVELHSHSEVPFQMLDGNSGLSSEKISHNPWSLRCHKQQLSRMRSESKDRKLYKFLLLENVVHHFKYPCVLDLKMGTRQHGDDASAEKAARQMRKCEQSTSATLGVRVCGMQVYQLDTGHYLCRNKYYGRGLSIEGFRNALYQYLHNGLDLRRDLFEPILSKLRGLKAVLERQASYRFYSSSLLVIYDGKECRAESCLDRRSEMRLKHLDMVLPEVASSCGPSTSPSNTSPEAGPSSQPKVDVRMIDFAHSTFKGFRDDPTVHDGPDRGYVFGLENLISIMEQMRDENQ

human IP6K2 = target: T2, human IP6K2 (Homo sapiens, UniProt Q9UHH9); assay: ADP-Glo kinase assay for IP6K activity; details: read-out: IC50 IP6K2; recombinant human IP6K2 12 nM, ATP 15 μM, InsP6 50 μM, 2 h; mean ± S.D.
T2 sequence (Q9UHH9 1-426): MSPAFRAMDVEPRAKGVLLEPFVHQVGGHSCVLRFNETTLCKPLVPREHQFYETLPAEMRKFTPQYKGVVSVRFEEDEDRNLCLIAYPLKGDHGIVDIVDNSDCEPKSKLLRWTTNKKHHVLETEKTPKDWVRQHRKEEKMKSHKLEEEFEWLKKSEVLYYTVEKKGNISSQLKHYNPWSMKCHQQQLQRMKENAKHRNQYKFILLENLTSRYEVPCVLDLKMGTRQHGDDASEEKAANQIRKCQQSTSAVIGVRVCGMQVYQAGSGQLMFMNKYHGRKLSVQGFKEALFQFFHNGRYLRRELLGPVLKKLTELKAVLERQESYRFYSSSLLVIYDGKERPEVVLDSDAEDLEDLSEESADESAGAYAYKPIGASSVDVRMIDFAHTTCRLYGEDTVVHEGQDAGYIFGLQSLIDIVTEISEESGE

human IP6K3 = target: T3, human IP6K3 (Homo sapiens, UniProt Q96PC2); assay: ADP-Glo kinase assay for IP6K activity; details: read-out: IC50 IP6K3; recombinant human IP6K3 […], ATP 15 μM, InsP6 50 μM, 2 h; mean ± S.D.
T3 sequence (Q96PC2 1-410): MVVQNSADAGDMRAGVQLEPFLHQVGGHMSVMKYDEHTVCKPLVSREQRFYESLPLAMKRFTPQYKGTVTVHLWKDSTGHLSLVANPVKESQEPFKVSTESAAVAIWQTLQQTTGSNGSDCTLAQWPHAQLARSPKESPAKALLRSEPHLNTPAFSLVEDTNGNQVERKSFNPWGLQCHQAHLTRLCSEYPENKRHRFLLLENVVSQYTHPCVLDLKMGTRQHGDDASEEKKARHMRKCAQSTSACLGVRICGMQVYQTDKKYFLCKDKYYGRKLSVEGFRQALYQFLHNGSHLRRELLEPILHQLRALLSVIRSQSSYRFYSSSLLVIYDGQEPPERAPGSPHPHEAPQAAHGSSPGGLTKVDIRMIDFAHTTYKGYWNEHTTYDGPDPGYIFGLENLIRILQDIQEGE

SMILES: O=C([O-])[O-].O=C([O-])[O-].O=C([O-])[O-].[La+3].[La+3] [Lanthanum carbonate]
32P activity / phosphate excretion in faeces vs vehicle ([1]; in words): increased
Cumulative 32P activity in the faeces ([1]; 48 h (Fig3f)): 53.2569% and 73.3985% and 64.9027% and 66.783% and 73.7253%
Cumulative 32P activity in the faeces ([1]; 72 h (Fig3f)): 53.7862% and 74.2778% and 65.7229% and 68.7476% and 74.3353%
Cumulative 32P activity in the urine ([2]; 8 h (Fig3g)): 0.04647% and 0.2136% and 1.254% and 0.632% and 0.6628%
Cumulative 32P activity in the urine ([2]; 24 h (Fig3g)): 0.658% and 2.356% and 3.626% and 2.673% and 3.04%
Cumulative 32P activity in the urine ([2]; 48 h (Fig3g)): 0.8554% and 3.259% and 4.427% and 3.818% and 3.918%
Cumulative 32P activity in the urine ([2]; 72 h (Fig3g)): 1.078% and 3.901% and 5.067% and 4.576% and 4.362%

Free SC-919 levels ([3]; animal studies using rats and monkeys, reviewer response): below 0.05 μM
Plasma concentration of SC-919 ([3]; normal rats, 1 mg/kg oral, time 1, individual animals (Fig3a), 1 mg/kg): 1942.907 and 1856.710 and 1476.530
Plasma concentration of SC-919 ([3]; normal rats, 1 mg/kg oral, time 2 (Fig3a), 1 mg/kg): 2011.947 and 2121.932 and 1778.126
Plasma concentration of SC-919 ([3]; normal rats, 1 mg/kg oral, time 4 (Fig3a), 1 mg/kg): 2195.083 and 2444.564 and 1949.961
Plasma concentration of SC-919 ([3]; normal rats, 1 mg/kg oral, time 8 (Fig3a), 1 mg/kg): 1948.434 and 2469.995 and 1783.145
Plasma concentration of SC-919 ([3]; normal rats, 3 mg/kg oral, time 1 (Fig3a), 3 mg/kg): 4153.987 and 3662.163 and 4004.199
Plasma concentration of SC-919 ([3]; normal rats, 3 mg/kg oral, time 2 (Fig3a), 3 mg/kg): 5074.332 and 4401.713 and 4372.837
Plasma concentration of SC-919 ([3]; normal rats, 3 mg/kg oral, time 4 (Fig3a), 3 mg/kg): 5790.125 and 5489.252 and 5879.739
Plasma concentration of SC-919 ([3]; normal rats, 3 mg/kg oral, time 8 (Fig3a), 3 mg/kg): 6166.814 and 6363.863 and 4651.047
Plasma concentration of SC-919 ([3]; normal rats, 10 mg/kg oral, time 1 (Fig3a), 10 mg/kg): 11886.470 and 10328.550 and 8429.354
Plasma concentration of SC-919 ([3]; normal rats, 10 mg/kg oral, time 2 (Fig3a), 10 mg/kg): 13647.120 and 11744.460 and 11378.370
Plasma concentration of SC-919 ([3]; normal rats, 10 mg/kg oral, time 4 (Fig3a), 10 mg/kg): 14060.780 and 13051.160 and 10832.720
Plasma concentration of SC-919 ([3]; normal rats, 10 mg/kg oral, time 8 (Fig3a), 10 mg/kg): 14559.520 and 13008.450 and 10214.420
Plasma concentration of SC-919 ([3]; normal rats, 10 mg/kg oral, time 24 (Fig3a), 10 mg/kg): 14337.480 and 9820.569 and 8024.378
Plasma SC-919 concentrations ([3]; normal rats, oral administration, in words): increased in a dose-dependent manner
Concentration of SC-919 (plasma) ([6]; 1 mg/kg oral, initial dose, time 2, individual animals (Fig4a), 1 mg/kg): 928.621 and 807.664 and 876.622
Concentration of SC-919 (plasma) ([6]; 1 mg/kg, initial dose, time 6 (Fig4a)): 850.061 and 949.996 and 720.403
Concentration of SC-919 (plasma) ([6]; 1 mg/kg, seventh dose, time 2 (Fig4c)): 2909.926 and 3195.472 and 1783.864
Concentration of SC-919 (plasma) ([6]; 1 mg/kg, seventh dose, time 6 (Fig4c)): 2957.483 and 3182.718 and 1810.036
Concentration of SC-919 (plasma) ([6]; 1 mg/kg, seventh dose, time 24 (Fig4c)): 2238.331 and 2202.619 and 1356.448
Concentration of SC-919 (plasma) ([6]; 10 mg/kg, initial dose, time 2 (Fig4a)): 5701.725 and 5986.890 and 6856.247
Concentration of SC-919 (plasma) ([6]; 10 mg/kg, initial dose, time 6 (Fig4a)): 4444.794 and 6665.965 and 6592.043
Concentration of SC-919 (plasma) ([6]; 10 mg/kg, initial dose, time 24 (Fig4a)): 2595.707 and 5143.151 and 4143.702
Concentration of SC-919 (plasma) ([6]; 10 mg/kg, seventh dose, time 2 (Fig4c)): 8573.125 and 12574.890 and 8591.283
Concentration of SC-919 (plasma) ([6]; 10 mg/kg, seventh dose, time 6 (Fig4c)): 7820.236 and 14817.670 and 9035.189
SMILES: O=C(O)c1ccc2c(c1)[C@]1(CC[C@H](Oc3ncc(Cl)cc3Cl)CC1)C(=O)N2 [SC-919]
Concentration of SC-919 in plasma [4]: 40.468 and 0.000 and 7.073 and 24.376 and 2.454 and 13.910
Concentration of SC-919 (plasma) [5]: 541.632 and 264.446 and 202.061 and 200.786 and 379.989 and 301.737 and 410.34

SMILES: O=[N+]([O-])c1ccc(CNc2nc(NCc3cccc(C(F)(F)F)c3)nc3nc[nH]c23)cc1 [TNP, N2-(m-(trifluoromethyl)benzyl) N6-(p-nitrobenzyl)purine]
IC50 (human IP6K1): 270 ± 100 nM
IC50 (human IP6K2): 850 ± 330 nM
IC50 (human IP6K3): 260 ± 21 nM
